We go through two molecules from publication PMC3747428, “Asymmetry of the Active Site Loop Conformation between Subunits of Glutamate-1-semialdehyde Aminomutase in Solution” (BioMed Research International, 2013).

For assay [1], the target named is T1, Glutamate-1-semialdehyde aminomutase (GSAM) from Synechococcus (Synechococcus elongatus, UniProt P24630).
T1 construct: gene hemL; homodimer; mobile loop residues 153-181; Trp53 and Trp67
In words: half-transamination converting native enzyme into PMP form, followed by gel filtration and absorbance. Conditions: reaction intermediate, racemic, 5 mM; 100 mM Na-Tricine pH 7.9. The format is biochemical.

The target in assay [2] is T1, Glutamate-1-semialdehyde aminomutase (GSAM) from Synechococcus. Briefly: half-transamination converting native enzyme into PLP form, followed by gel filtration and absorbance. Type of assay: biochemical. Conditions: substrate analogue, 20 mM; 100 mM Na-Tricine pH 7.9.

T1 sequence (P24630 2-433): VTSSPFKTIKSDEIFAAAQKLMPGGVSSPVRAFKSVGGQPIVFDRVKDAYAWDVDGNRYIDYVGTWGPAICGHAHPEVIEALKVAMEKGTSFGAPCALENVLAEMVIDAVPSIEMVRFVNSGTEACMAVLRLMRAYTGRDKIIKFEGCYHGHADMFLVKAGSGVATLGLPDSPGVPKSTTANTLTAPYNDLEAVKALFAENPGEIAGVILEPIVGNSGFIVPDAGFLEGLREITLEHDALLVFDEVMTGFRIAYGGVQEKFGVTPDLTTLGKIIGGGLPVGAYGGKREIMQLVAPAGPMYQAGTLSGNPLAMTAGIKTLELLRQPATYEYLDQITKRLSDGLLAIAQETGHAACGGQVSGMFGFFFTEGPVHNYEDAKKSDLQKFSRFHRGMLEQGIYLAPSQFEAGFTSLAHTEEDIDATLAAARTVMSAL

For the molecule `NCC(N)CCC(=O)O` (racemic) [DAVA, 4,5-diaminovalerate], in assay [1], the “half-transamination converting native enzyme into PMP form, followed by gel filt” value is recorded as “the PMP form (PMP-GSAM), obtained by the addition of DAVA”.

With `O=CCCC(=O)O` [succinic semialdehyde], in assay [2], the “half-transamination converting native enzyme into PLP form, followed by gel filt” value is given as “PLP-GSAM), obtained by treating the native enzyme with succinic-1-semialdehyde”.
